Data: patent US20260265238A1, “COMPOUNDS AND PHARMACEUTICAL COMPOSITIONS THAT DEGRADE SWI/SNF-RELATED MATRIX-ASSOCIATED ACTIN-DEPENDENT REGULATOR OF CHROMATIN SUBFAMILY A” (Plexium, Inc., priority 2023, published 2026)

How the values were obtained:
[1] = target: T1, SMARCA2-HiBiT HeLa cells (protein which is expressed from the SMARCA2 gene) (Homo sapiens, UniProt P51531); test: SMARCA2 degradation assay (HiBiT-fusion HeLa cell line, 24 h, luminescence); format: cell-based
T1 construct: protein which is expressed from the SMARCA2 and SMARCA4 genes; host or cells: HeLa (SMARCA2-HiBiT engineered line)
T1 sequence (P51531 whole entry, the tested form may be a part): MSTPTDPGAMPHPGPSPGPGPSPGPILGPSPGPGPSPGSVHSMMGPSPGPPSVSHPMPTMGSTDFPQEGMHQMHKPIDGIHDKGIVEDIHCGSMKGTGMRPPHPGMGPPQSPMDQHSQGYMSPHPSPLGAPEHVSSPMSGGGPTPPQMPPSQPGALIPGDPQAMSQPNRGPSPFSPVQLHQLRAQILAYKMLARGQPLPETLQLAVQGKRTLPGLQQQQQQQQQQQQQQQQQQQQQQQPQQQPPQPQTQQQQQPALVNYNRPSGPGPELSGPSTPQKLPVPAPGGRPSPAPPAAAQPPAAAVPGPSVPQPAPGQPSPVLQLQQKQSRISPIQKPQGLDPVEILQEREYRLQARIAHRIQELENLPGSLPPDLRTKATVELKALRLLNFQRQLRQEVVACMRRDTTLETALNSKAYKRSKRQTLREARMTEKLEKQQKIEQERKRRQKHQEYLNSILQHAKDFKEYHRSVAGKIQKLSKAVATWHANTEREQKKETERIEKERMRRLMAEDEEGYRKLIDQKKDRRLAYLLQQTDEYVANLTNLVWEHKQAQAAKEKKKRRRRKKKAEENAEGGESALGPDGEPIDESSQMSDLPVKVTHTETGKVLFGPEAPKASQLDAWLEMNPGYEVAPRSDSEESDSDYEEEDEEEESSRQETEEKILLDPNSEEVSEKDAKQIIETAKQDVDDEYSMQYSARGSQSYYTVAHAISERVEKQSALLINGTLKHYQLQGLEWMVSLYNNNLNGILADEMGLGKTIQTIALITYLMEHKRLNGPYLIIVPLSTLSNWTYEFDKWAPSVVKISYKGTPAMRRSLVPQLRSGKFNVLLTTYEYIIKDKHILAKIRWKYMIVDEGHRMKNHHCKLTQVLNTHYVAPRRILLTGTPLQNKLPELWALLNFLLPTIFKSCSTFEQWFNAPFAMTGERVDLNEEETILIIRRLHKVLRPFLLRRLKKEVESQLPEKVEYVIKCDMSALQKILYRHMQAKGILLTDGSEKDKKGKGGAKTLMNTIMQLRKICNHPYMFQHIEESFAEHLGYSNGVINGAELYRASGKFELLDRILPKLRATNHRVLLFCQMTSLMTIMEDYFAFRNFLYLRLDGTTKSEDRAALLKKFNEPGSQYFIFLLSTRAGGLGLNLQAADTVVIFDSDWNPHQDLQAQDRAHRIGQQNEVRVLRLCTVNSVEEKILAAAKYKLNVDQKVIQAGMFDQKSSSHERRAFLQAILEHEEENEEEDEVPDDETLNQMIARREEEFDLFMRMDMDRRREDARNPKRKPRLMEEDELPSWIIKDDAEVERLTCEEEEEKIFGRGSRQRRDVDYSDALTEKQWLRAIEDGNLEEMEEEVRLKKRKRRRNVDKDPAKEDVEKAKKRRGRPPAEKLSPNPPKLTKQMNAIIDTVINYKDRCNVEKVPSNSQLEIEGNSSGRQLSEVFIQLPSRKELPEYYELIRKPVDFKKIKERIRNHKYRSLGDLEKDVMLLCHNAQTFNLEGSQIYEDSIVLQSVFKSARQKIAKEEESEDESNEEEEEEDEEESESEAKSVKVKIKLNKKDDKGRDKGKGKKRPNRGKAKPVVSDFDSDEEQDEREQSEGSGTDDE
How it was run: (§1)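 HiBiT-fusion HeLa lines, 8,000 cells/well, overnight attachment; cpd 10-pt series (typically 10 μM–300 pM), 24 h, 37° C. Lysis with LgBiT + HiBiT substrate, 10 min shaking at RT, luminescence read. DC50 from dose-response fit; % degradation also scored at 1 μM.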

[2] = target: T2, SMARCA4-HiBiT HeLa cells (protein which is expressed from the SMARCA4 gene) (Homo sapiens, UniProt P51532); test: SMARCA4 degradation assay (HiBiT-fusion HeLa cell line, 24 h, luminescence); format: cell-based
T2 construct: protein which is expressed from the SMARCA2 and SMARCA4 genes; host or cells: HeLa (SMARCA4-HiBiT engineered line)
T2 sequence (P51532 whole entry, the tested form may be a part): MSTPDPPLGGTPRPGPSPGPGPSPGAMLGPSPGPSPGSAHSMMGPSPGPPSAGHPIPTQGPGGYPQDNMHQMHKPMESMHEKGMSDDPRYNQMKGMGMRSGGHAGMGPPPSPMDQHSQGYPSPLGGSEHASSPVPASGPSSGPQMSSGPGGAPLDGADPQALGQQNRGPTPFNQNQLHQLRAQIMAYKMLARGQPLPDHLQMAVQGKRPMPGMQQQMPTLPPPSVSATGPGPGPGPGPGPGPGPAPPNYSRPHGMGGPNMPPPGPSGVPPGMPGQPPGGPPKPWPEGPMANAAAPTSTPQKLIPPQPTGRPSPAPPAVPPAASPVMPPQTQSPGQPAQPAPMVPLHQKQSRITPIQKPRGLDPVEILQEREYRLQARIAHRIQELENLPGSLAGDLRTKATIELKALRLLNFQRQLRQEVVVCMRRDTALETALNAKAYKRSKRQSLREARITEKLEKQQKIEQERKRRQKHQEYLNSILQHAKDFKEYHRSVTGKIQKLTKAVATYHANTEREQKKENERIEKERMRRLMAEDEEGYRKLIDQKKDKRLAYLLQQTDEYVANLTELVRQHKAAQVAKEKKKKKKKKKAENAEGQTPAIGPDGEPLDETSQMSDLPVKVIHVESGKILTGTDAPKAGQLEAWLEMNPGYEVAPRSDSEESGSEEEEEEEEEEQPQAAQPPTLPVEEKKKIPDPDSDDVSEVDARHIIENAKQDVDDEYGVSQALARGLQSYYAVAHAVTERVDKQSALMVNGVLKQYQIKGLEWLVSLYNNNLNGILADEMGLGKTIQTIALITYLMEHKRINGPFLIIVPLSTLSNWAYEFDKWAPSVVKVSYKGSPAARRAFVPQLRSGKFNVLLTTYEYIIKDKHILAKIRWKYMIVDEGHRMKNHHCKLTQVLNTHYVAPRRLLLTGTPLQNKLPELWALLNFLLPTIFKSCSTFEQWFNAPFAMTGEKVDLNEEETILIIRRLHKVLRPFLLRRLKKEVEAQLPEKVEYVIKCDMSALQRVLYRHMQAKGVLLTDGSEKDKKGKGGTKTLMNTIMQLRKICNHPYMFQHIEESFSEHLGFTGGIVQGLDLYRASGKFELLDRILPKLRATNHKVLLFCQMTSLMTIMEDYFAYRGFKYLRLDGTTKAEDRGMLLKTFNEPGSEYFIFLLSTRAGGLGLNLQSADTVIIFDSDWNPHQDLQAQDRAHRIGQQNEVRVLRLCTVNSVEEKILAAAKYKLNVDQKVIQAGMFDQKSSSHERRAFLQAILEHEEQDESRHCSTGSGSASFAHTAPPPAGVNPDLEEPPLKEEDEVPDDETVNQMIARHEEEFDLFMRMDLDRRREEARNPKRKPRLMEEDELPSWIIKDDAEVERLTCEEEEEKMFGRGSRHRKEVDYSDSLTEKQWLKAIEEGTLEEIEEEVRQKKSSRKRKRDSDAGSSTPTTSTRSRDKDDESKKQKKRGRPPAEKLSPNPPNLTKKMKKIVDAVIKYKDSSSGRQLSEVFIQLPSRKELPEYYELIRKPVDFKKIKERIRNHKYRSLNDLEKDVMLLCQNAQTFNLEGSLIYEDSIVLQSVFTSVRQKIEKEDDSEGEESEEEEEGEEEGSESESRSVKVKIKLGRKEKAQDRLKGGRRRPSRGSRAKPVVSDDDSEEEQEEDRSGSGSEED
How it was run: as §1

Compound | DC50 [1] | SMARCA2 % Degradation @ 1 μM [1] | DC50 [2] | inhibition at 1 µM [2]
CC1(F)CCN(CC#Cc2nccc(N3CCC4(CC3)CCN(c3cc(-c5ccccc5O)nnc3N)C4)n2)C1 (stereo not shown) [Compound P-195, o-[6-amino-5-(8-{2-[3-(3-fluoro-3-methyl-1-pyrrolidinyl)-1-propynyl]-4-pyrimidinyl}-2,8-diaza-2-spiro[4.5]decyl)-3-pyridazinyl]phenol] | 50 to 500 nM | ++ (++=30-70%) | 50 to 500 nM | 30 to 70%
C[C@@H]1CCN(c2cc(-c3ccccc3O)nnc2N)CCN1c1ccnc(C#CC23CCC(C2)N3)n1 (stereo partly drawn) [Compound P-196, o-{5-[(R)-4-(2-{2-(5-azabicyclo[2.1.1]hex-1-yl)ethynyl}-4-pyrimidinyl)-5-methyl-1,4-diazepan-1-yl]-6-amino-3-pyridazinyl}phenol] | 500 to 5000 nM | ++ (++=30-70%) | 500 to 5000 nM | < 30%
Nc1nnc(-c2ccccc2O)cc1OC1CC2CN(c3ccnc(C#CCN4CCC4)n3)CC2C1 (stereo not shown) [Compound P-197, o-[6-amino-5-(3-(2-[3-(1-azetidinyl)-1-propynyl]-4-pyrimidinyl}-3-azabicyclo[3.3.0]oct-7-yloxy)-3-pyridazinyl]phenol] | 50 to 500 nM | ++ (++=30-70%) | 500 to 5000 nM | 30 to 70%
C[C@@H]1CCN(c2cc(-c3ccccc3O)nnc2N)CCN1c1ccnc(C#C[C@@H](C)O)n1 [Compound P-198, o-{5-[(R)-4-{2-[(R)-3-hydroxy-1-butynyl]-4-pyrimidinyl}-5-methyl-1,4-diazepan-1-yl]-6-amino-3-pyridazinyl}phenol] | 50 to 500 nM | +++ (+++=>70%) | 500 to 5000 nM | 30 to 70%
C[C@@H]1CCN(c2cc(-c3ccccc3O)nnc2N)CCN1c1ccnc(C#CCN2CCC3(CC2)COC3)n1 [Compound P-199, o-{5-[(R)-5-methyl-4-(2-{3-(2-oxa-7-aza-7-spiro[3.5]nonyl)-1-propynyl}-4-pyrimidinyl)-1,4-diazepan-1-y1]-6-amino-3-pyridazinyl}phenol] | 50 to 500 nM | +++ (+++=>70%) | 50 to 500 nM | 30 to 70%
C[C@@H]1CCN(c2cc(-c3ccccc3O)nnc2N)CCN1c1ccnc(C#CCN2C[C@@H]3C[C@H]2CO3)n1 [Compound P-200] | 50 to 500 nM | +++ (+++=>70%) | 50 to 500 nM | 30 to 70%
C[C@@H]1CCN(c2cc(-c3ccccc3O)nnc2N)CCN1c1ccnc(C#CCN2CC3(CCC3(F)F)C2)n1 [Compound P-201, o-{5-[(R)-4-(2-{3-(5,5-difluoro-2-aza-2-spiro[3.3]hcptyl)-1-propynyl}-4-pyrimidinyl)-5-methyl-1,4-diazepan-1-yl]-6-amino-3-pyridazinyl}phenol] | 50 to 500 nM | +++ (+++=>70%) | 50 to 500 nM | 30 to 70%
CCN(CC)CC#Cc1nccc(N2CCN(c3cc(-c4ccccc4O)nnc3N)CC[C@H]2C)n1 [Compound P-202] | < 50 nM | +++ (+++=>70%) | < 50 nM | 30 to 70%
C[C@@H]1CCN(c2cc(-c3ccccc3O)nnc2N)CCN1c1nc(C#CCN2CCCC2=O)ncc1F [Compound P-203, 1-[3-(4-{(R)-4-[3-amino-6-(o-hydroxyphenyl)-4-pyridazinyl]-7-methyl-1,4-diazepan-1-y1}-5-fluoro-2-pyrimidinyl)-2-propynyl]-2-pyrrolidinone] | 50 to 500 nM | ++ (++=30-70%) | 50 to 500 nM | 30 to 70%
Nc1nnc(-c2ccccc2O)cc1N1CC2CC(C1)N2c1ccnc(C#CCN2CC(F)(F)C2)n1 [Compound P-204, o-[6-amino-5-(6-{2-[3-(3,3-difluoro-1-azetidinyl)-1-propynyl]-4-pyrimidinyl}-3,6-diazabicyclo[3.1.1]hept-3-yl)-3-pyridazinyl]phenol] | 50 to 500 nM | ++ (++=30-70%) | 500 to 5000 nM | 30 to 70%
Nc1nnc(-c2ccccc2O)cc1N1CC2CC(C1)N2c1ccnc(C#CCn2cncn2)n1 [Compound P-205, o-[6-amino-5-(6-{2-[3-(1H-1,2,4-triazol-1-yl)-1-propynyl]-4-pyrimidinyl}-3,6-diazabicyclo[3.1.1]hept-3-yl)-3-pyridazinyl]phenol] | > 5000 nM | – | 500 to 5000 nM | 30 to 70%
CN(C)CC#Cc1nccc(N2C3CC2CN(c2cc(-c4ccccc4O)nnc2N)C3)n1 [Compound P-206, o-[6-amino-5-(6-{2-[3-(dimethylamino)-1-propynyl]-4-pyrimidinyl}-3,6-diazabicyclo[3.1.1]hcpt-3-yl)-3-pyridazinyl]phenol] | < 50 nM | +++ (+++=>70%) | 50 to 500 nM | > 70%
C[C@@H]1CCN(c2cc(-c3ccccc3O)nnc2N)CCN1c1nc(C#CCO)ncc1F [Compound P-207, o-(5-{(R)-4-[5-fluoro-2-(3-hydroxy-1-propynyl)-4-pyrimidinyl]-5-methyl-1,4-diazepan-1-yl}-6-amino-3-pyridazinyl)phenol] | 500 to 5000 nM | ++ (++=30-70%) | 500 to 5000 nM | < 30%
CC(C#Cc1ncc(F)c(N2CCN(c3cc(-c4ccccc4O)nnc3N)CC[C@H]2C)n1)N(C)C (stereo partly shown) [Compound P-208] | 50 to 500 nM | ++ (++=30-70%) | 50 to 500 nM | < 30%
C[C@@H]1CCN(c2cc(-c3ccccc3O)nnc2N)CCN1c1ccnc(C#CCN2CC(F)(F)C3(CCC3)C2)n1 [Compound P-209, o-{5-[(R)-4-(2-{3-(8,8-difluoro-6-aza-6-spiro[3.4]octyl)-1-propyny1}-4-pyrimidinyl)-5-methyl-1,4-diazepan-1-yl]-6-amino-3-pyridaziny1} phenol] | 50 to 500 nM | ++ (++=30-70%) | 50 to 500 nM | 30 to 70%
C[C@@H]1CCN(c2cc(-c3ccccc3O)nnc2N)CCN1c1ccnc(C#CCN2CCC(C)(F)C2)n1 (stereo partly drawn) [Compound P-210, o-{5-[(R)-4-{2-[3-(3-fluoro-3-methyl-1-pyrrolidinyl)-1-propynyl]-4-pyrimidinyl}-5-methyl-1,4-diazepan-1-yl]-6-amino-3-pyridaziny1} phenol] | < 50 nM | ++ (++=30-70%) | < 50 nM | 30 to 70%
C[C@@H]1CCN(c2cc(-c3ccccc3O)nnc2N)CCN1c1ccnc(C#CC2CCCO2)n1 (stereo partly drawn) [Compound P-211, o-{5-[(R)-5-methyl-4-{2-[2-(tetrahydro-2-furyl)ethynyl]-4-pyrimidinyl}-1,4-diazepan-1-yl]-6-amino-3-pyridaziny1} phenol] | 50 to 500 nM | ++ (++=30-70%) | 500 to 5000 nM | < 30%
Nc1nnc(-c2ccccc2O)cc1-c1cnn(C2CN(c3ccnc(C#CCn4ccnc4)n3)C2)c1 [Compound P-212, o-{6-amino-5-[1-(1-{2-[3-(1-imidazolyl)-1-propynyl]-4-pyrimidinyl}-3-azetidinyl)-4-pyrazolyl]-3-pyridazinyl} phenol] | 50 to 500 nM | ++ (++=30-70%) | 50 to 500 nM | 30 to 70%
C[C@@H]1CCN(c2cc(-c3ccccc3O)nnc2N)CCN1c1ccnc(C#CCN2CC3(COC3)C2)n1 [Compound P-213, o-{5-[(R)-5-methyl-4-(2-{3-(2-oxa-6-aza-6-spiro[3.3]heptyl)-1-propynyl}-4-pyrimidinyl)-1,4-diazepan-1-yl]-6-amino-3-pyridazinyl}phenol] | 50 to 500 nM | ++ (++=30-70%) | > 5000 nM | < 30%
C[C@@H]1CCN(c2cc(-c3ccccc3O)nnc2N)CCN1c1nc(C#CCn2cncn2)ncc1F [Compound P-214, o-{5-[(R)-4-{5-fluoro-2-[3-(1H-1,2,4-triazol-1-yl)-1-propynyl]-4-pyrimidinyl}-5-methyl-1,4-diazepan-1-yl]-6-amino-3-pyridazinyl}phenol] | 50 to 500 nM | ++ (++=30-70%) | 50 to 500 nM | 30 to 70%
C[C@@H]1CCN(c2cc(-c3ccccc3O)nnc2N)CCN1c1ccnc(C#CCN2CC(C#N)C2)n1 [Compound P-215, 1-[3-(4-{ (R)-4-[3-amino-6-(o-hydroxyphenyl)-4-pyridazinyl]-7-methyl-1,4-diazepan-1-yl}-2-pyrimidinyl)-2-propynyl]-3-azetidinecarbonitrile] | 50 to 500 nM | +++ (+++=>70%) | 50 to 500 nM | 30 to 70%
CN(C)CC#Cc1nccc(N2CC(n3cc(-c4cc(-c5ccccc5O)nnc4N)cn3)C2)n1 [Compound P-216, o-{6-amino-5-[1-(1-{2-[3-(dimethylamino)-1-propynyl]-4-pyrimidinyl}-3-azetidinyl)-4-pyrazolyl]-3-pyridazinyl} phenol] | < 50 nM | ++ (++=30-70%) | < 50 nM | 30 to 70%
C[C@H]1CCN(c2cc(-c3ccccc3O)nnc2N)CCN1c1ccnc(C#CCN(C)CC(F)(F)F)n1 [Compound P-217, o-{5-[(S)-4-(2-{3-[N-methyl(2,2,2-trifluoroethyl)amino]-1-propynyl}-4-pyrimidinyl)-5-methyl-1,4-diazepan-1-yl]-6-amino-3-pyridaziny1}phenol] | 50 to 500 nM | ++ (++=30-70%) | 50 to 500 nM | < 30%
